The values below come from US20240150286A1, “PEROXISOME PROLIFERATOR-ACTIVATED RECEPTOR GAMMA (PPARy) LIGANDS AND METHODS OF USE AS TREATMENTS FOR INSULIN RESISTANCE, OBESITY, FATTY LIVER DISEASE, AND TYPE 2 DIABETES” (The Board of Regents of the University of Oklahoma, priority 2022, published 2024).

In one series the target is T1, human PPARγ2 (Homo sapiens, UniProt P37231).
T1 construct: host or cells: HEK-293
T1 sequence (P37231 1-505): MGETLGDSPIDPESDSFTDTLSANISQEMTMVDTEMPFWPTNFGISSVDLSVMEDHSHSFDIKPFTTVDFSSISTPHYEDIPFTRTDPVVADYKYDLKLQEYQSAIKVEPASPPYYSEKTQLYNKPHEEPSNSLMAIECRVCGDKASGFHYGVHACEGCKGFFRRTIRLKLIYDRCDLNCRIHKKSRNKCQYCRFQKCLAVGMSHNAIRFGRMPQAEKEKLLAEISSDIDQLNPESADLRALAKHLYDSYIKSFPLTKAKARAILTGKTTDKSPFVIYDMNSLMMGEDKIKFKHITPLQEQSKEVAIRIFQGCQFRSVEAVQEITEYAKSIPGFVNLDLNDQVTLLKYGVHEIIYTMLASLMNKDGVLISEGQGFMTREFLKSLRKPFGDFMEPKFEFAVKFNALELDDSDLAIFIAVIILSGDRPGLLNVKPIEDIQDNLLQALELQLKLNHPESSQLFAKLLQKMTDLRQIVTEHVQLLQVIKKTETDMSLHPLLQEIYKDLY
The experiment in a line: PPARγ transactivation reporter assay (3×PPRE-luc) in HEK-293 cells. It counts as cell-based. The procedure: HEK-293 cells were seeded overnight, co-transfected with plasmids expressing human PPARγ2 and 3×PPRE-luc (both from Addgene) followed by incubation for 16 h, and then re-seeded in a 384-well plate and incubated for 24 h. Compounds were added and then incubated another 24 h. Luciferase activity was analyzed in each well using Bright-Glo Luciferase kit (Promega).

Series [1] deals with primary preadipocytes isolated from iWAT and eWAT. Description: Browning gene expression in differentiated primary preadipocytes. In kind it is cell-based, mouse. The conditions noted are these: differentiated with WO95E vs DMSO. Here is the method:
3T3-L1 preadipocytes were differentiated. In brief, cells at around 60%-70% confluence were induced for differentiation with DMEM containing 10% FBS, 1 μg/ml insulin, 1 μM dexamethasone, and 0.5 mM IBMX for 48 h in the presence or absence of compounds and were then exposed in maintenance medium (1 μg/mL insulin in 10% FBS/DMEM) containing compounds. The medium was renewed every 2 days for total 8 days of differentiation when the cells became differentiated and lipid droplets were apparent. For primary preadipocyte differentiation, isolation of primary preadipocytes was performed. Briefly, fat depots were digested in PBS containing collagenase D (1.5 U/ml) at 37° C. for 40-45 min. The primary cells were filtered through 70 μm cell strainer and centrifuge at 700 g to collect stromal vascular fraction (SVF). The SVF cell pellets were plated on collagen coated plates. […]
Total RNA (2 μg) was isolated from tissues or cells using TRIzol reagents (Life Technologies) and reverse transcribed using oligo d(T) primers (New England Biosystems) and SuperScript IV reverse transcription kit (Applied Biosystems). qPCR was performed in a CFX96 Touch Real-Time PCR detection system using SYBR Green mix (Applied Biosystems). […] Relative mRNA expression was determined by the ΔΔCt method normalized to TBP mRNA. […]

In series [2] the test system is diet-induced obesity (DIO) mice. The experiment in a line: Glucose tolerance, insulin tolerance and serum biochemistry in DIO mice. In kind it is in vivo, mouse. Here is the method: (§1) C57BL/6J male mice were obtained from Jackson laboratory (Bar Harbor, ME) and maintained on a 12 h light (6:00 AM to 6:00 PM)—12 h dark (6:00 PM to 6:00 AM) cycle at an ambient temperature of 22±1° C. All animals had access to diet and water ad libitum. All procedures involving animals were approved by the Institutional Animal Care and Use Committee of the University of Oklahoma Health Science Center. All experiments were performed with age-matched male mice. The mice were fed a high-fat diet (HFD) (60% kcal fat, Bio-Serv, NJ, USA) starting from the age of 6 weeks until study end. […] Food intake was determined manually by measuring the amount of input food subtracting the amount of the food remaining in the food hopper and the crumbs on the bedding of the cage each day for three days during the 4th week of the treatment. Packed cell volume (PCV) was measured with blood drawn from tail on a LW Scientific E8 centrifuge (LW Scientific, Lawrenceville, Georgia, USA) microhematocrit centrifuge at the end of study. For all other measurements, the blood was drawn at the time of euthanization.
Intraperitoneal glucose tolerance test (ipGTT) was performed after 6-h fasting. Blood glucose levels were measured at 0, 15, 30, 60, and 120 min glucometer (OneTouch Ultra 2 Meter) after an intraperitoneal administration of glucose at dose of 1.5 g/kg body weight. Intraperitoneal insulin tolerance test (ipITT) was performed after 6 h fasting. Blood glucose levels were measured at 0, 15, 30, 60, and 120 min after an intraperitoneal administration of human insulin at dose of 1.2 IU/kg body weight.
Serum insulin (ALPCO, NH, USA), serum cholesterol TG (Cayman Chem., MI, USA) and FFAs (Bioassay system, CA, USA) were determined by ELISA.

For series [3] the test system is unchanged. The experiment in a line: TZD-associated side effects in DIO mice (PCV, heart weight, cardiac and bone genes). In kind it is in vivo, mouse. Here is the method:
as §1
Total RNA (2 μg) was isolated from tissues or cells using TRIzol reagents (Life Technologies) and reverse transcribed using oligo d(T) primers (New England Biosystems) and SuperScript IV reverse transcription kit (Applied Biosystems). qPCR was performed in a CFX96 Touch Real-Time PCR detection system using SYBR Green mix (Applied Biosystems). The amplification program was as follows: initial denaturation at 95° C. for 15 min, followed by 40 cycles of 95° C. for 15 s, 60° C. for 1 min, and 40° C. for 30 s. Relative mRNA expression was determined by the ΔΔCt method normalized to TBP mRNA.

Take `Cc1c(C)n(Cc2ccc(-c3ccccc3C(=O)O)cc2)c2ccc(C(=O)NCc3cccc(O)c3)cc12` [WO95E, 4′-((5-((3-hydroxybenzyl)carbamoyl)-2,3-dimethyl-1H-indol-1-yl)methyl)-[1,1′-biphenyl]-2-carboxylic acid]: on human PPARγ2 (HEK293, PPARγ2 + 3×PPRE-luc), the “PPARγ transactivation reporter activation (in words)” value is “increased the reporter activity only weakly”. Besides, the “3×PPRE-luc reporter activity as % of potency of Rosi” value at human PPARγ2 (HEK293, PPARγ2 + 3×PPRE-luc, relative to Rosi) is on record as roughly 15%. In addition, on human PPARγ2 (HEK293, PPARγ2 + 3×PPRE-luc, relative to UHC1), the “3×PPRE-luc reporter activity as % of potency of UHC1” value was roughly 33%. The “3×PPRE reporter activation with GW9662 co-treatment” value on human PPARγ2 (compound 10 μM, GW9662 5 μM, HEK293) is “retained its moderate ability to activate the reporter”. In series [1], the “expression levels of Prdm16, UCP1, PCG1α, Ppara in iWAT adipocytes” value was “significantly increased”. Also, in series [2] (15 mg/kg i.p. daily 4 weeks), the “serum level of free fatty acid” value was “decreased” and the total serum cholesterol result was “downward trend but did not reach statistically significant”. Further, the triglyceride level result in series [2] (15 mg/kg i.p. daily 4 weeks, data not shown) was “unchanged”. Besides, in series [2] (15 mg/kg i.p. daily, 2 weeks, vs vehicle), the “glucose tolerance (ipGTT, peak glucose and AUC)” value is given as “significantly improved”. Besides, the “insulin sensitivity (ipITT)” value in series [2] (15 mg/kg i.p. daily, 2.5 weeks, vs vehicle) is reported as “enhanced”. The “fasting and refeeding plasma levels of insulin” value in series [2] (15 mg/kg i.p. daily, vs vehicle) is reported as “markedly decreased”. Besides, in series [3] (4-week treatment), the “mRNA levels of bone formation genes (Bglap, SPP1, ColA1)” value is “no apparent effect”. Further, the “packed-cell volume (PCV)” value in series [3] (indicator of hemodilution) is reported as “unchanged”. Further, the heart weight result in series [3] (relative to vehicle) is given as “no effect”. The “mRNA levels of Myh7 and Nppb in heart” value in series [3] (vs vehicle) is on record as “not significantly altered or even lowered”.
